According to paper PMC11801377, “A uniquely efficacious type of CFTR corrector with complementary mode of action” (Science Advances, 2024):

Target: F508del-CFTR (Homo sapiens, UniProt P13569, DEL508-508)
Experiment: Halide-sensitive YFP quenching assay in U2OS-F508del-CFTR-YFP cells
Format: cell-based
Parameters: host or cells: U2OS (PathHunter U2OS-F508del-CFTR MEM-EA)
Settings: overnight treatment; acute forskolin and IVA 2 nM
Experimental: U2OS-F508del-CFTR cells expressing Topaz-YFP F46L/H148Q/I152L were seeded at 20,000 cells per well into 384-well black clear-bottom plates in 40 μl per well growth medium (Mc COY’s 5A, Gibco, 10% FBS, penicillin/streptomycin), containing the various CFTR correctors at the indicated concentrations. The cells were coincubated with the compounds for 24 hours (37°C, 5% CO2). The next day, plates were washed twice with PBS^+ (55 μl per well; PBS containing 0.9 mM Ca^2+ and 0.5 mM Mg^2+). PBS^+ was fully removed, and cells were supplemented with 15 μl PBS^+. Then, 5 μl of 4× concentrated stocks of IVA or vehicle in dilution buffer [PBS^+, 0.1 μM forskolin, and 0.2% bovine serum albumin (fatty acid free) (pH 7.4)] were added and incubated for 30 min in the dark. For experiments with I-172 (Sigma- Aldrich), the inhibitor was added to the mix with either IVA or vehicle to reach a final concentration in cells of 20 μM. Then, plates were transferred to the FLIPR Tetra (fluorescence imaging plate reader; Molecular Devices: excitation: 470 to 495 nm; emission: 526 to 585 nm), baseline fluorescence reading of the YFP signal was performed for 6 s (10 × 0.6 s intervals) after which 25 μl of iodide buffer [137 mM NaI, 2.7 mM KCl, 1.5 mM KH2PO4, 8.1 mM Na2HPO4, 1 mM CaCl2, and 0.5 mM MgCl2 (pH 7.4)] was added, and fluorescence reading was continued for 70 s (50 × 0.6 s intervals; 20 x 2 s intervals) to assess YFP quenching through CFTR-mediated iodide influx. For analysis, fluorescence traces were aligned and normalized at the last time point before iodide addition (normalized fluorescence = 1). Normalized fluorescence values obtained 20 s after the beginning of the assay were used to assess the degree of YFP quenching, i.e., CFTR function (see fig. S1J). […] Then, plates were read and analyzed as above. […] Then, plates were transferred to the FLIPR Tetra and read and analyzed as above.

Chain of F508del-CFTR (P13569 with tags, fused parts or gaps DEL508-508): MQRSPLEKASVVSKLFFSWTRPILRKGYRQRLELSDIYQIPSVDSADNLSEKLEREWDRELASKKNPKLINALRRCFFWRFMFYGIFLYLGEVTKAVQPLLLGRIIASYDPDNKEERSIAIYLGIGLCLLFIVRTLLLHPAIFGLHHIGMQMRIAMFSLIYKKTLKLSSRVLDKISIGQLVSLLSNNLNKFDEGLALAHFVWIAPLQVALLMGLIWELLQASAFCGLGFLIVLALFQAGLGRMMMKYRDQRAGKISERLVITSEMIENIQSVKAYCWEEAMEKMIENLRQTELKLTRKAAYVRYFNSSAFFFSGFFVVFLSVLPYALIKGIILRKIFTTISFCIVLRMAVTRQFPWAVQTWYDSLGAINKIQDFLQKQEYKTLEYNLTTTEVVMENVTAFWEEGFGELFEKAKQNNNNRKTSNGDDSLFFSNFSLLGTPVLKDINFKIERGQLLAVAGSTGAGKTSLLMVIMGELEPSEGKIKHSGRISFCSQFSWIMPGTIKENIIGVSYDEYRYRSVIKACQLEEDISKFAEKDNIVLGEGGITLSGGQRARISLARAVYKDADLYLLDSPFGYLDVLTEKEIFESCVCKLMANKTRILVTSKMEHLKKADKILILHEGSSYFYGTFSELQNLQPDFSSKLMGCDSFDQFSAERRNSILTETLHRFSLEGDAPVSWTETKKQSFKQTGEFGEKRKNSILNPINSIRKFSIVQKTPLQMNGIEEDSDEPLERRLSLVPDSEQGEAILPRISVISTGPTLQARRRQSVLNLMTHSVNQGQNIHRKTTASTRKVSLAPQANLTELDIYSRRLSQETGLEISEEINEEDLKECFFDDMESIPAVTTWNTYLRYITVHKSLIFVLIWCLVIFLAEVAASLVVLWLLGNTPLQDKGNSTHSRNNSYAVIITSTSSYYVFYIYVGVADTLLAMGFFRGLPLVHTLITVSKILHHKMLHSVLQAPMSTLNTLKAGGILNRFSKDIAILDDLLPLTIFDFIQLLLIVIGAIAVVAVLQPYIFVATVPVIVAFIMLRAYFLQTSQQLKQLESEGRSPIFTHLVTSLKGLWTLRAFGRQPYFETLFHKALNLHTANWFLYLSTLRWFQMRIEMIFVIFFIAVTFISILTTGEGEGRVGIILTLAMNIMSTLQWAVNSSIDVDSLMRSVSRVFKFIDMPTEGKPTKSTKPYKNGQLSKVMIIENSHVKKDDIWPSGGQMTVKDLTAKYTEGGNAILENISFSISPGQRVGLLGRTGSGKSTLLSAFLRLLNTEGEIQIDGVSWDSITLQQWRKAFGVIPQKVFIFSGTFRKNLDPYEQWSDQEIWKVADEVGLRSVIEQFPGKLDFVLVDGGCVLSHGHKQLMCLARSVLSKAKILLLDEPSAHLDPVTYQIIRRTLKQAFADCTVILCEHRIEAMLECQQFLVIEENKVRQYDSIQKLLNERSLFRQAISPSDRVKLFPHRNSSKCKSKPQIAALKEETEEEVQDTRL

With `COc1cc(CCNC(=O)C2CC(=O)N(C)C(CC(C)C)C(=O)N3CCCCC3C(=O)NC(Cc3ccccc3)COc3ccc4ncc(F)cc4c3C(=O)N2)on1` (stereo not shown) [IDOR-3] the “F508del-CFTR function (YFP quenching)” value was “strongly increased F508del-CFTR function”.
